Data: patent US4349544A, “Method for increasing the milk let down in mammals” (Ceskoslovenska akademie ved, priority 1976, dated 1982)
Values joined by “and” are separate entries in the source; they are usually repeats but may differ in a detail not shown here. Equal entries are not always repeated.

How the values were obtained:
[1] = test system: uterine horn; assay: In situ uterine horn contractions in estrogenized anesthetized female rats; type: in vivo, rat; conditions: for A = amplitude of contractions as a % of maximal contraction induced by a tetanic dose of 10 mcg/kg oxytocin: equipotent i.v. doses (10 mcg/kg dCOMOT, Me-OT; 1 mcg/kg dOT, OT), n=5; for A = amplitude of contractions as a % of maximal contraction induced by a tetanic dose of 10 mcg/kg oxytocin / C = duration of the response: mean, SEM on next line; for D = the presence of tetany in % of the animal group (single maximal contraction lasting more than 10 min.) / B = contraction frequency per 10 min. in % / C = duration of the response: equipotent i.v. doses (10 or 1 mcg/kg); for B = contraction frequency per 10 min. in %: mean ± SEM
Description: 250-300 g body wt female rats (n=5 for each substance) were pre-treated for 3 days with 50 mcg di-ethylstilbestrol and 25 mg progesterone injected once daily i.m. in order to fully "estrogenize" the animals and have them all in the same functional state of myometrial reactivity. They were then anesthetized with urethane and prepared for in situ measurements of uterine horn contractions using Grass force-displacement treansducers and polygraph recording.

[2] = test system: sows affected with hypogalactia or agalactia; type: in vivo, sow; conditions: for Litter size (Mean ± s.d.) 7 days after treatment / Litter size (Mean ± s.d.) at day of treatment: dCOMOT 0.6 mg i.v. or i.m., oxytocin 30-50 I.U.; for sows failing to eject milk on the day after treatment: day after 1st treatment; for Mean piglet weight per litter at day of treatment / Litter size (Mean ± s.d.) at day of treatment: day of treatment (baseline); for side effects after treatment: in vivo
[3] = Partition coefficient between 2-butanol and 0.05% acetic acid; type: physicochemical; conditions: 2-butanol / 0.05% acetic acid
Description: K = partition coefficient between 2butanol and 0.05% acetic

[4] = test system: in situ rat uterus; assay: Biological activity B: in situ rat uterus; conditions: in vivo
Description: | B = in situ rat uterus,

[5] = test system: lactational activity; assay: Biological activity E: lactational activity in vivo
Description: | E = lactational activity in vivo

[6] = test system: isolated rat uterus; assay: Biological activity A: isolated rat uterus; type: cell-based
Description: | A = isolated rat uterus,

[7] = test system: isolated rat mammary gland; assay: Biological activity D: isolated rat mammary gland; type: cell-based
Description: | D = isolated rat mammary gland,

[8] = test system: antidiuretic in the rat; assay: Biological activity F: antidiuretic in the rat; conditions: in vivo
Description: | F = antidiuretic in the rat.

[9] = test system: pregnant cows; assay: Induction of labor in pregnant Czech red-spotted cows; type: in vivo, cow; conditions: for Duration of Labor: individual animals
Description: These experiments were carried out on 13 pregnant `Czech red-spotted` cows ranging from para I to para V. Average pregnancy in this breed is 290 days in duration.
Nine of the animals were 278-290 days after insemination but actual active labor had not yet begun. These animals received no other medication (Table 7).
Four of the animals were estimated to be near to term (cf. Table 4). 48 hours before the actual experiment they received 20 mg dexamethasone i.m. in an attempt to prepare the uterine cervix for active labor. In this group, in addition to close clinical follow-up, measurements were also made of: body temp., hemoglobin (Hb), glucose, total protein, inorganic P, Ca and Mg concentrations in the blood, both in the cow during the experiment and in the calf after birth, all by standard methods.
The standard i.v. (jugular) injection dosage of dCOMOT was 5 mg. In those cases in which labor lasted longer than 6 hours (cf. Results) in second injection was given.
The first group of 9 cows was managed under field conditions--in the barns of local farms. The four animals under more intensive study were kept in stalls set aside in a research building for one week prior to the onset of the experiment and for 3 weeks following delivery for further postnatal observations.

[10] = test system: healthy lactating sows; assay: Milk-let-down effect in healthy lactating sows; type: in vivo, sow
Description: The milk-let-down effect of 1-desamino-1-monocarba-([…](OMe))-oxytocin (hereinafter noted as dCOMOT) was tested in healthy lactating sows. The milk-let-down effect of 0.6 mg of dCOMOT injected intravenously lasted for from 4 to 9 hours.

[11] = test system: uterus of gilts; type: in vivo, gilt; conditions: i.v., OT 1 to 5 IU, dCOMOT 0.2 to 1.0 mg
Description: Four gilts were used. The experiments stated about 24 hours after onset of their second or third estrus. Their cycle duration was in the range 19-22 days. They were anesthetized by i.v. administration of about 15 mg/kg Na thionembutal (in 5% (w/v) solution)--additional doses were required during the experiment. The uterus was exposed through a midline abdominal incision. A recording balloon-tipped catheter was inserted into each uterine horn through a small incision about 10 cm from the uterine body (Clay-Adams catheters, PE 90-0.86 mm i.d.×1.27 mm o.d., with a micro-balloon sealed over the tip with a double tie of 0000 silk suture). The recording system was filled with saline and each catheter was affixed to the uterine wall with 000 silk suture to prevent motion of the balloon in the lumen. The catheters exited through the mid-abdominal incision and were connected to P-23AC pressure transducers, thence to 7PL DC preamplifiers. When we were satisfied that the recording system was functioning the abdominal incision was closed about the catheters. […] Unfortunately there was not enough material for a full scale dose-response investigation.

[12] = sow, as in all other mammals; cited from earlier work
[13] = test system: myometrium; conditions: relative to oxytocin; cited from earlier work

| Compound | A = amplitude of contractions as a % of maximal contraction induced by a tetanic dose of 10 mcg/kg oxytocin [1] | D = the presence of tetany in % of the animal group (single maximal contraction lasting more than 10 min.) [1] | B = contraction frequency per 10 min. in % [1] | C = duration of the response [1] | Mean piglet weight per litter 7 days after treatment [2] | Litter size (Mean ± s.d.) 7 days after treatment [2] | sows failing to eject milk on the day after treatment [2] | Mean piglet weight per litter at day of treatment [2] | Litter size (Mean ± s.d.) at day of treatment [2] | side effects after treatment [2] | also measured |
| --- | --- | --- | --- | --- | --- | --- | --- | --- | --- | --- | --- |
| 1-deamino-OT [d OT] | 92% | 60% | 65 ± 6.2% | 46 min |  |  |  |  |  |  |  |
| 1-desamino-1-monocarba-(2-Tyr(OMe))-oxytocin [Ic] | 65% | none | 60 ± 5.3% | 185 min | 2.64 ± 0.62 kg | 8.92 ± 1.85 | None | 1.44 ± 0.37 kg | 10.16 ± 1.65 | No side effects were observed | piglet weight gain during the observation period versus oxytocin group ([2]; 7 day observation period): gained more weight; K = partition coefficient [3]: 3.15; Biological activities B = in situ rat uterus [4]: 40 IU/mg; Biological activities E = lactational activity in vivo [5]: 35 IU/mg; Biological activities A = isolated rat uterus [6]: 10 IU/mg; Biological activities D = isolated rat mammary gland [7]: 67 IU/mg; Biological activities F = antidiuretic in the rat [8]: 0.9 IU/mg; health of calves ([9]; Group I): All the calves were healthy; Mean duration of labor from the dCOMOT injection ([9]; Group I, 9 non-pretreated cows, mean ± SEM): 14.25 ± 5.1 h; uterine tetany during induced labor ([9]; Group I, non-pretreated cows): no evidence of uterine tetany whatsoever; response following injection ([9]; Group I, non-pretreated cows, all cases): onset of regular uterinne contractions and increased tension in the udder; Duration of Labor ([9]; Group I, non-pretreated cows, dCOMOT i.v.): 26 h and 34 h and 22.5 h and 6 h and 24.5 h and 10 h and 1.5 h and 7 h and 15 h; health of calves ([9]; Group II): all calves were healthy; mean duration of labor ([9]; Group II, 4 dexamethasone pretreated cows): 4.3 ± 2.1 h; Duration of Labor ([9]; Group II, cows pretreated with 20 mg dexamethasone i.m. 48 hours before, listed as dCOMOT): 0.7 h and 8.2 h and 8.8 h and 8.6 h; uterine tetany during induced labor ([9]; Group II, dexamethasone pretreated cows): In no cases was uterine tetany observed; start of active labor after injection ([9]; Group II, dexamethasone pretreated cows, all cases): within minutes; Progeny Serum ([9]; Group II, dexamethasone pretreated cows, individual calves): 7.4; duration of secondary oscillation in intramammary pressure ([10]; 0.6 mg intravenously, healthy lactating sows): at least 4 hours; milk-let-down response after intramuscular injection ([10]; intramuscular injection, compared with i.v.): approximately the same response |
| CC[C@H](C)[C@@H]1NC(=O)[C@H](Cc2ccc(O)cc2)NC(=O)[C@@H](N)CSSC[C@@H](C(=O)N2CCC[C@H]2C(=O)N[C@@H](CC(C)C)C(=O)NCC(N)=O)NC(=O)[C@H](CC(N)=O)NC(=O)[C@H](CCC(N)=O)NC1=O [oxytocin, reference compound] | 90% | 60% | 43 ± 3.2% | 10.4 min | 2.28 ± 0.44 kg | 9.10 ± 2.10 | Four out of 17 | 1.40 ± 0.22 kg | 10.00 ± 1.95 | No side effects were observed | contraction rate after injection (baseline 6/10 min) [11]: 8/10; response duration ([11]; anesthetized gilts): approximately 10 min; biochemical half-life of injected hormone [12]: only a few minutes; duration of rapid increase of the intramammary pressure ([10]; 5-10 I.U. intravenous, healthy lactating sows): 5 to 10 min |
| [2-Tyr(OMe)]-OT [Me--OT] | 68% | none | 42 ± 5.4% | 20.6 min |  |  |  |  |  |  | contractile activity on the myometrium in comparison with the natural hormone [13]: one tenth; vasoconstrictor activity in the myometrium in comparison with the natural hormone [13]: one hundredth |
